In brackets after ≈: the same amount, converted by molar mass.
What was measured:
[1] = tested on: P. falciparum Sierra Leone D6 (chloroquine-sensitive); experiment: Antimalarial/parasite LDH assay, D6 clone; assay type: cell-based; conditions: Plasmodium falciparum, D6, 72 h, read-out: P. falciparum D6 IC50
[2] = tested on: L. donovani promastigotes; experiment: Antileishmanial assay; assay type: cell-based; conditions: Leishmania donovani, 48 h, read-out: L. donovani IC50
[3] = tested on: Candida albicans ATCC 90028; experiment: Antimicrobial assay, C. albicans; assay type: cell-based; conditions: ATCC90028, read-out: IC50, C. albicans
[4] = tested on: P. berghei (NK-65 strain); experiment: In vivo antimalarial assay
[5] = tested on: SK-MEL (human malignant melanoma); experiment: Cytotoxicity assay, SK-MEL; assay type: cell-based; conditions: 48 h, read-out: IC50 SK-MEL
[6] = tested on: Mycobacterium intracellulare ATCC 23068; experiment: Antimicrobial assay, M. intracellulare; assay type: cell-based; conditions: for MIC: ATCC23068, read-out: MIC, M. intracellulare
[7] = tested on: methicillin-resistant Staphylococcus aureus ATCC 43300; experiment: Antimicrobial assay, MRSA; assay type: cell-based; conditions: ATCC43300|MRSA; for MBC: read-out: MBC, MRSA; for MIC: read-out: MIC, MRSA
[8] = tested on: Aspergillus fumigatus ATCC 90906; experiment: Antimicrobial assay, A. fumigatus; assay type: cell-based; conditions: ATCC90906, read-out: IC50, A. fumigatus
RBC = experiment: Hemolytic activity; conditions: from IC50 (RBC lysis)
[9] = tested on: KB (human epidermoid carcinoma); experiment: Cytotoxicity assay, KB; assay type: cell-based; conditions: 48 h, read-out: IC50 KB
[10] = tested on: Cryptococcus neoformans ATCC 90113; experiment: Antimicrobial assay, C. neoformans; assay type: cell-based

In the case of C[C@@H]1N[C@H](CCCCCCCCCCc2cc(CCCCCCCCCC[C@H]3CC[C@@H](O)[C@@H](C)N3)c[n+]3c2CCC3)CC[C@H]1O [Compound 4, Isoprosopilosidine], the IC50 [1] is reported as 0.042 µg/mL, the IC50 [2] is reported as 0.8 µg/mL and the IC50 [3] is reported as over 20 µg/mL.

CCO[C@H]1O[C@@H]2O[C@@]3(C)CC[C@H]4[C@H](C)CC[C@@H]([C@H]1C)[C@@]24OO3 [β-Arteether, β-arteether, reference compound] was tested, and the “Cure (mice without parasitemia till day 28/total mice in group)” value ([4]; 10 mg/kg × 3 days) was 5/5.

Molecule C[C@@H]1N[C@H](CCCCCCCCCCC2=C[C@@H](CCCCCCCCCC[C@@H]3CC[C@@H](O)[C@H](C)N3)[C@@H]3CCCN3C2)CC[C@H]1O [Compound 2, 6,8-bis-[(2R,5R,6R)-5-hydroxy-6-methylpiperidin-2-yl]decyl-[8R,8aS]-6,7-dehydroindolizidine] has an IC50 [5] of under 1.1 µg/mL, an MIC [6] of 5 µg/mL (≈ 7.94 µM) and an MBC [7] of 10 µg/mL (≈ 15.9 µM). For the same molecule, the MIC [7] was 2.5 µg/mL (≈ 3.97 µM).

Work on CCN(CC)CCCC(C)Nc1ccnc2cc(Cl)ccc12 (stereo not drawn) [Chloroquine, chloroquine, reference compound] yielded an IC50 [1] of 0.017 µg/mL (≈ 0.0531 µM).

Work on C[C@@H]1N[C@H](CCCCCCCCCCc2cc(CCCCCCCCCC[C@@H]3CC[C@@H](O)[C@H](C)N3)c3[n+](c2)CCC3)CC[C@H]1O.[Cl-] [Compound 6, Prosopilosidine dihydrochloride] yielded an MBC [7] of 5 µg/mL and an IC50 [8] of over 20 µg/mL.

In the case of C[C@@H]1N[C@H](CCCCCCCCCCc2cc(CCCCCCCCCC[C@@H]3CC[C@H](O)[C@@H](C)N3)c3[n+](c2)CCC3)CC[C@H]1O.[Cl-] [Compound 1], the “fold less toxic than amphotericin B in regard to hemolytic activity” value (RBC) is reported as over 4 fold, the “Cure (mice without parasitemia till day 28/total mice in group)” value ([4]; 1 mg/kg × 3 days, ip) is reported as 0/5 and the “Cure (mice without parasitemia till day 28/total mice in group)” value ([4]; 2 mg/kg × 3 days, ip) is reported as 0/5. The “toxicity observed due to treatment” value ([4]; 1 and 2 mg/Kg/day for 3 days, ip, mice) was “no significant toxicity” and the MIC [6] was 2.5 µg/mL.

C[C@H]1N[C@@H](CCCCCCCCCCC2=C[C@@H](CCCCCCCCCC[C@@H]3CC[C@H](O)[C@@H](C)N3)[C@@H]3CCCN3C2)CC[C@H]1O.Cl.Cl [Compound 8, Isoprosopilosine dihydrochloride] showed an MBC [7] of 5 µg/mL and an MIC [7] of 5 µg/mL.

C[C@H]1N[C@@H](CCCCCCCCCCC2=C[C@@H](CCCCCCCCCC[C@@H]3CC[C@H](O)[C@@H](C)N3)[C@@H]3CCCN3C2)CC[C@H]1O [Compound 3, Isoprosopilosine] was tested, and the IC50 [5] was under 1.1 µg/mL, the MIC [6] was 5 µg/mL (≈ 7.94 µM) and the IC50 [3] was over 20 µg/mL.

For O=C(O)c1cn(C2CC2)c2cc(N3CCNCC3)c(F)cc2c1=O [Ciprofloxacin, reference compound], the IC50 ([6]; ATCC23068, read-out: IC50, M. intracellulare) was 0.25 µg/mL (≈ 0.754 µM).

For C[C@@H]1[C@H](O)[C@@H](C)/C=C/C=C/C=C/C=C/C=C/C=C/C=C/[C@H](O[C@@H]2O[C@H](C)[C@@H](O)[C@H](N)[C@@H]2O)C[C@@H]2O[C@](O)(C[C@@H](O)C[C@@H](O)[C@H](O)CC[C@@H](O)C[C@@H](O)CC(=O)O[C@H]1C)C[C@H](O)[C@H]2C(=O)O [Amphotericin B], the IC50 [9] was over 25 µg/mL.

C[C@H]1N[C@@H](CCCCCCCCCCC2=C[C@@H](CCCCCCCCCC[C@H]3CC[C@@H](O)[C@@H](C)N3)[C@@H]3CCCN3C2)CC[C@H]1O [Compound 5, juliprosopine] gave an MBC ([6]; ATCC23068, read-out: MBC, M. intracellulare) of 20 µg/mL (≈ 31.7 µM), an MIC [6] of 20 µg/mL (≈ 31.7 µM) and an IC50 [3] of over 20 µg/mL.

In the case of C[C@@H]1N[C@H](CCCCCCCCCCC2=C[C@@H](CCCCCCCCCC[C@@H]3CC[C@@H](O)[C@H](C)N3)[C@@H]3CCCN3C2)CC[C@H]1O.Cl.Cl [Compound 7, Prosopilosine dihydrochloride], the MFC ([10]; ATCC90113, read-out: MFC, C. neoformans) is reported as 5 µg/mL, the MIC ([10]; ATCC90113, read-out: MIC, C. neoformans) is reported as 5 µg/mL and the IC50 [2] is reported as 3.1 µg/mL. It also gave an MBC [7] of 5 µg/mL, an MIC [7] of 5 µg/mL and an IC50 [3] of over 20 µg/mL. The IC50 [8] was over 20 µg/mL.
